Consider eleven compounds from ChEMBL document CHEMBL4422651, “Revisiting tubercidin against kinetoplastid parasites: Aromatic substitutions at position 7 improve activity and reduce toxicity” (Eur J Med Chem, 2019).

Series [1] has as its system Trypanosoma brucei brucei. The series is described as follows: Antitrypanosomal activity against Trypanosoma brucei brucei Squib 427 after 48 hrs by alamar blue assay. The format is functional, organism-based. The settings on record: Squib 427, 48 h. In general terms: Alamar Blue is a resazurin reagent that responds to reducing activity.
The subject of a further series is MRC5. Kind of series: Cytotoxicity against human MRC5 cells assessed as reduction in cell viability after 3 days by resazurin dye-based assay. The settings on record: MRC5, 72 h.
Series [2] can be described thus: Selectivity index, ratio of EC50 for human MRC5 cells to EC50 for Trypanosoma brucei brucei Squib 427. As to conditions: read-out: Ratio EC50. The format is toxicity.
Series [3] is described as follows: Selectivity index, ratio of EC50 for human MRC5 cells to EC50 for nifurtimox-sensitive Trypanosoma cruzi Tulahuen CL2 harboring beta-galactosidase. The format is toxicity. The settings on record: read-out: Ratio EC50.
The test system of series [4] is Trypanosoma cruzi. The series is described as follows: Potency index, ratio of EC50 for benznidazole to EC50 for test compound for antitrypanosomal activity against nifurtimox-sensitive Trypanosoma cruzi Tulahuen CL2 harboring beta-galactosidase infected in human MRC5 cells after 7 days by resazurin dye-based assay. The format is functional.
The test system of series [5] is Trypanosoma brucei. Kind of series: Antitrypanosomal activity against wild type Trypanosoma brucei Lister 427 after 48 hrs by alamar blue assay. The format is functional, organism-based. As to conditions: Lister 427, 48 h.
Series [6] deals with Trypanosoma brucei. Kind of series: Antitrypanosomal activity against Trypanosoma brucei TbAT1-KO after 48 hrs by alamar blue assay. The format is functional, organism-based.
In series [7] the test system is Trypanosoma brucei. The series is described as follows: Antitrypanosomal activity against pentamidine/diminazene/melaminophenyl arsenical resistant Trypanosoma brucei B48 after 48 hrs by alamar blue assay. The format is functional, organism-based. The settings on record: B48, 48 h.
For series [8], the system named is Trypanosoma brucei. The series is described as follows: Antitrypanosomal activity against isometamidium resistant Trypanosoma brucei ISMR1 after 48 hrs by alamar blue assay. The format is functional, organism-based. The settings on record: ISMR1, 48 h.
The test system of the next series is Trypanosoma congolense. The series is described as follows: Antitrypanosomal activity against Trypanosoma congolense by resazurin assay. The format is functional, organism-based.
The test system of series [9] is Trypanosoma cruzi. The series is described as follows: Antitrypanosomal activity against nifurtimox-sensitive Trypanosoma cruzi Tulahuen CL2 harboring beta-galactosidase infected in human MRC5 cells after 7 days by resazurin dye-based assay. As to conditions: for pEC50: Tulahuen CL2, MRC5, 168 h. The format is functional, organism-based.
The nature of series [10]: (§1) Inhibition of [3H]-adenosine transport at Trypanosoma brucei Adenosine transporter P1 expressed in pentamidine/diminazene/melaminophenyl arsenical resistant Trypanosoma brucei B48 bloodstream forms after 60 secs by scintillation counting analysis.
A short description of series [11]: (§2) Inhibition of [3H]-adenosine transport at Trypanosoma brucei Adenosine transporter P2 expressed in pentamidine/diminazene/melaminophenyl arsenical resistant Trypanosoma brucei B48 bloodstream forms after 60 secs by scintillation counting analysis.
Series [12] relates to Trypanosoma brucei rhodesiense. Kind of series: Antitrypanosomal activity against Trypanosoma brucei rhodesiense STIB-900 after 48 hrs by alamar blue assay. The settings on record: STIB-900, 48 h. The format is functional, organism-based.
Series [13] can be described thus: Selectivity index, ratio of EC50 for human MRC5 cells to EC50 for Trypanosoma brucei rhodesiense STIB-900. The format is toxicity. As to conditions: read-out: Ratio EC50.
For another series, the system named is Peritoneal macrophage. The series is described as follows: Cytotoxicity against Swiss mouse primary peritoneal macrophages assessed as reduction in cell viability after 5 days. As to conditions: 120 h. The format is cell-based.
The next series has as its system Leishmania infantum. The series is described as follows: Antileishmanial activity against Leishmania infantum amastigotes infected in Swiss mouse primary peritoneal macrophages assessed as reduction in parasite burden after 5 days by Giemsa staining-based microscopic analysis. The format is functional, organism-based. As to conditions: 120 h.
Series [14] deals with Trypanosoma brucei. The series is described as §1.
For series [15], the system named is Trypanosoma brucei. Described as §2.

pEC50, pKi: −log10 of the molar value. Active and inactive are the calls of the source. The rule behind the calls is not given here.

For the compound `Nc1ncnc2c1c(-c1ccc(Cl)cc1)cn2[C@@H]1O[C@H](CO)[C@@H](O)[C@H]1O`, the pEC50 (in general, −log10 of the EC50, conventionally taken in molar units) was 5.12 in series [1] and 4.57 in the series with MRC5. The selectivity ratio in series [2] came out at 3.6; in [3] it was 57.4. Further, the “Ratio EC50” value in the series on Trypanosoma cruzi [4] was “<=10”.
For the compound `N=C(N)c1ccc(OCCCCCOc2ccc(C(=N)N)cc2)cc1` [PENTAMIDINE], the pEC50 in the series on Trypanosoma brucei [5] is 7.96; in the series on Trypanosoma brucei [6], 7.74; in the series with Trypanosoma brucei [7], 6.00; in the series with Trypanosoma brucei [8], 6.85; with Trypanosoma congolense, 5.72.
As for `Nc1ncnc2c1c(-c1cccnc1)cn2[C@@H]1O[C@H](CO)[C@@H](O)[C@H]1O`, the pEC50 (in series [1]; in the series with MRC5) was under 4.19 in each case. In addition, the outcome with Trypanosoma cruzi [9] was inactive. Moreover, the figures for the pKi in series [10] and in series [11] were 4.66 and 4.31, respectively.
Consider `O=C(Cn1ccnc1[N+](=O)[O-])NCc1ccccc1` [BENZNIDAZOLE], for which the pEC50 in the series with MRC5 is under 4.19. Also, in series [3], the selectivity ratio is over 23.
On to `CC[n+]1c(-c2ccccc2)c2cc(N/N=N/c3cccc(C(=N)N)c3)ccc2c2ccc(N)cc21` [ISOMETAMIDIUM], for which the pEC50 was 6.19 in the series with Trypanosoma brucei [5], 6.12 in the series on Trypanosoma brucei [6], 6.25 in the series on Trypanosoma brucei [7] and 5.51 in the series with Trypanosoma brucei [8].
Turning to `Nc1ncnc2c1c(-c1ccc(F)cc1)cn2[C@@H]1O[C@H](CO)[C@@H](O)[C@H]1O`, the pEC50 in series [1] is 5.06; in series [12] it was 4.83; in the series with MRC5, under 4.19; in the series on Trypanosoma cruzi [9], 6.31. For the same compound, the selectivity ratio was over 7.3 in series [2], over 4.4 in [13] and over 130 in series [3]. The “Ratio EC50” value in the series with Trypanosoma cruzi [4] is “<=10”.
In the case of `N=C(N)c1ccc(/N=N/Nc2ccc(C(=N)N)cc2)cc1` [DIMINAZENE], the negative-log EC50 (pEC50) is 6.38 with Trypanosoma brucei [5]; 5.35 with Trypanosoma brucei [6]; 5.14 with Trypanosoma brucei [7]; 5.54 in the series with Trypanosoma brucei [8]; 6.66 with Trypanosoma congolense.
Consider `Nc1ncnc2c1ccn2[C@@H]1O[C@H](CO)[C@@H](O)[C@H]1O` [TUBERCIDIN], for which the negative logarithm of the EC50 (pEC50) in [1] is 6.32; in the series with MRC5, 5.65; with Trypanosoma brucei [5] it was 6.82; in the series on Trypanosoma brucei [6], 5.58; in the series with Trypanosoma brucei [7] it was 5.37; in the series on Trypanosoma brucei [8], 5.77. Also, the figures for the pEC50 in the series on Trypanosoma cruzi [9] and in the series with Leishmania infantum were 6.47 and 6.89, respectively. Also, the selectivity ratio in series [2] was 4.6; in [3] it was 6.5. Further, the pKi (in general, the Ki on a negative log10 scale, so that one unit is a factor of ten) in series [10] is 4.11; in series [11], 5.42. In the series on Peritoneal macrophage (mouse, peritoneal macrophage), the Activity result is given as “Toxic”.
Consider `Nc1ncnc2c1c(-c1ccncc1)cn2[C@@H]1O[C@H](CO)[C@@H](O)[C@H]1O`, for which the values for the negative-log EC50 (pEC50) (in series [1]; in the series on MRC5) were under 4.19 and 4.25, respectively. Moreover, in the series with Trypanosoma cruzi [9], the outcome was inactive. Further, the pKi in [10] was 4.90; in series [11], 5.03.
In the case of `Nc1ncnc2c1ncn2[C@@H]1O[C@H](CO)[C@@H](O)[C@H]1O`, the Michaelis-Menten constant (Km) (in general, the concentration of substrate that gives half-maximal velocity) in the series on Trypanosoma brucei [14] worked out at 0.16 µM; with Trypanosoma brucei [15] it was 0.53 µM.
Regarding `Nc1ncnc2c1c(-c1ccc(Cl)c(Cl)c1)cn2[C@@H]1O[C@H](CO)[C@@H](O)[C@H]1O`, the pEC50 in series [1] is 5.51; in [12], 6.49; in the series on MRC5, 4.83; in the series on Trypanosoma cruzi [9] it was 6.72; with Peritoneal macrophage (Mus musculus, Swiss, Peritoneal macrophage), 4.70; with Leishmania infantum, 5.78. Further, the selectivity ratio in series [2] came to 4.8; in series [13] it was 46; in [3] it was 77.4. Moreover, the “Ratio EC50” value with Trypanosoma cruzi [4] is recorded as “<=10”.
